From patent US11884661B2, “3-substituted propionic acids as αV integrin inhibitors” (BRISTOL-MYERS SQUIBB COMPANY, priority 2016, dated 2024)
Counter-ions that a name gives are not always drawn.

What was measured:
human αVβ3 = human αVβ3 (Homo sapiens, UniProt P05106+P06756); test: human αVβ3 HTRF binding assay
Procedure: (§1) All binding assays used the HTRF (homogeneous time resolved fluorescence) technology from Cisbio International, therefore all assays are described as HTRF binding assays. The assay results for the Examples are listed above together with the characterization data. The HTRF binding assays are established for the following integrins: human αVβ6, human αVβ1, human αVβ3, human αVβ5, and human αVβ8. All assays used the following assay buffer: 20 mM Tris, pH 7.4, 1 mM MgCl2, 1 mM MnCl2, 0.01% Tween 20, and 0.01% BSA. Alternatively, a SPA-based assay was used for evaluation of receptor binding.
The following describes the components and a representative procedure for the human αVβ6 HTRF binding assay: Recombinant human αVβ6 Integrin (R & D systems, 3817-AV) was biotinylated. Biotinylated human αVβ6 Integrin was added to assay vessel at a final concentration of 1.25 nM. FITC-conjugated fibronectin (Cytoskeleton, FNR02) was then added at the final concentration of 5 nM. The mixture was centrifuged at 600 rpm for three minutes using Thermo Fisher Heraeus Multifuge X3 centrifuge and then incubated at RT for an hour. Streptavidin Terbium (Cisbio international 610STLB) was then added at the final concentration of 0.625 nM. The resulting mixture was centrifuged at 600 rpm for three minutes using Thermo Fisher Heraeus Multifuge X3 centrifuge and then incubated at room temperature overnight in dark before reading HTRF signals.

human αVβ8 = human αVβ8 (Homo sapiens, UniProt P06756+P26012); test: human αVβ8 HTRF binding assay
Procedure: as §1, with “binding. […]” for “binding.”

human αVβ6 = molecular target: T1, human αVβ6 (Homo sapiens, UniProt P06756+P18564); test: human αVβ6 HTRF binding assay; conditions: recombinant human αVβ6 integrin, FITC-conjugated fibronectin
T1 construct: purchased R & D systems 3817-AV
In short: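 Biotinylated recombinant αVβ6 (1.25 nM final) incubated with FITC-fibronectin (5 nM) 1 h at RT, then streptavidin-terbium (0.625 nM) added and incubated overnight at RT in the dark before HTRF read. Buffer: 20 mM Tris pH 7.4, 1 mM MgCl2, 1 mM MnCl2, 0.01% Tween 20, 0.01% BSA.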

human αVβ5 = human αVβ5 (Homo sapiens, UniProt P06756+P18084); test: human αVβ5 HTRF binding assay
Procedure: as §1, with “binding. […]” for “binding.”

Chain of human αVβ5 (P06756 31-992 limits assumed): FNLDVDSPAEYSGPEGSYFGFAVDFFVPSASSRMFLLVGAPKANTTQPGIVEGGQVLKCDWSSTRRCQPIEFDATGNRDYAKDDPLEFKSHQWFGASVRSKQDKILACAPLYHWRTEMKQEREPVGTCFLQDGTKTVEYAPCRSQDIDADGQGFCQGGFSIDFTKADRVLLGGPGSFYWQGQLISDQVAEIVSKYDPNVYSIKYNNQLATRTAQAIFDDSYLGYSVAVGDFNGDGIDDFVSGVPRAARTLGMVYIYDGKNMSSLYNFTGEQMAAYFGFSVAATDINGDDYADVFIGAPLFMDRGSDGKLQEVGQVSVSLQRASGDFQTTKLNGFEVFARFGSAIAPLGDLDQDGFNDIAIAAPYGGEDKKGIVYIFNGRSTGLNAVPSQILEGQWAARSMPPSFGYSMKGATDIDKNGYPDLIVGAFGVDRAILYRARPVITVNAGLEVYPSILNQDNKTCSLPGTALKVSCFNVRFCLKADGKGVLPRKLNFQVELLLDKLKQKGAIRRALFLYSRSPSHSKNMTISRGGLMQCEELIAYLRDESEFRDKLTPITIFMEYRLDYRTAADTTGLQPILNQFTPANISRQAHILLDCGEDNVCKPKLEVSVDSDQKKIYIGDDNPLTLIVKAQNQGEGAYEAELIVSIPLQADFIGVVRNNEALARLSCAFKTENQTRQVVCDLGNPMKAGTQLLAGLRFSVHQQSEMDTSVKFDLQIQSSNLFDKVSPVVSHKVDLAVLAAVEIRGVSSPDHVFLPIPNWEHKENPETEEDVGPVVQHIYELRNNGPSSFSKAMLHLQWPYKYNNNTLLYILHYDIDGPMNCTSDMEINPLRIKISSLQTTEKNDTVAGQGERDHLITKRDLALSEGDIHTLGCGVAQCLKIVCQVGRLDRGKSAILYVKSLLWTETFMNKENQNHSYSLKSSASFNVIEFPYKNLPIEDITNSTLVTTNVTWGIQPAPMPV
Chain of human αVβ5 (P18084 24-719 limits assumed): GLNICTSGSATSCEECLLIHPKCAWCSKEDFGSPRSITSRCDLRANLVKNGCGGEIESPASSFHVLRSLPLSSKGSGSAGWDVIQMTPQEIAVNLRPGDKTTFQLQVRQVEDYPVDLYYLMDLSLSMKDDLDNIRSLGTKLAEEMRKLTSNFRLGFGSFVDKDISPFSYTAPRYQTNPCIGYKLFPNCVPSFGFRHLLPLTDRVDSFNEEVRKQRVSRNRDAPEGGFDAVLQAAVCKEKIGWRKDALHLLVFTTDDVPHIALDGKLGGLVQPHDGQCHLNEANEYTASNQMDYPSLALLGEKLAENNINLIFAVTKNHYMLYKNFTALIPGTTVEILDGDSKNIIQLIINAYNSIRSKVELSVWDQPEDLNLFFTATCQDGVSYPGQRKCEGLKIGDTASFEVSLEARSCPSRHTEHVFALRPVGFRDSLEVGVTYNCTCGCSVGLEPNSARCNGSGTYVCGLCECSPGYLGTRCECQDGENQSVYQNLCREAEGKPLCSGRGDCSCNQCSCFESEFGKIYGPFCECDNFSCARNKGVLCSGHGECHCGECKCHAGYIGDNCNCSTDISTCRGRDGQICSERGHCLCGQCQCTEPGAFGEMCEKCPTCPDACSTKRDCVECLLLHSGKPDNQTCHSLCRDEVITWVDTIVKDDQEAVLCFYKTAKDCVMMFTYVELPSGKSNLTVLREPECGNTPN
T1 sequence (P06756 31-992 limits assumed): as the sequence (P06756 31-992 limits assumed) above
T1 sequence (P18564 22-707 limits assumed): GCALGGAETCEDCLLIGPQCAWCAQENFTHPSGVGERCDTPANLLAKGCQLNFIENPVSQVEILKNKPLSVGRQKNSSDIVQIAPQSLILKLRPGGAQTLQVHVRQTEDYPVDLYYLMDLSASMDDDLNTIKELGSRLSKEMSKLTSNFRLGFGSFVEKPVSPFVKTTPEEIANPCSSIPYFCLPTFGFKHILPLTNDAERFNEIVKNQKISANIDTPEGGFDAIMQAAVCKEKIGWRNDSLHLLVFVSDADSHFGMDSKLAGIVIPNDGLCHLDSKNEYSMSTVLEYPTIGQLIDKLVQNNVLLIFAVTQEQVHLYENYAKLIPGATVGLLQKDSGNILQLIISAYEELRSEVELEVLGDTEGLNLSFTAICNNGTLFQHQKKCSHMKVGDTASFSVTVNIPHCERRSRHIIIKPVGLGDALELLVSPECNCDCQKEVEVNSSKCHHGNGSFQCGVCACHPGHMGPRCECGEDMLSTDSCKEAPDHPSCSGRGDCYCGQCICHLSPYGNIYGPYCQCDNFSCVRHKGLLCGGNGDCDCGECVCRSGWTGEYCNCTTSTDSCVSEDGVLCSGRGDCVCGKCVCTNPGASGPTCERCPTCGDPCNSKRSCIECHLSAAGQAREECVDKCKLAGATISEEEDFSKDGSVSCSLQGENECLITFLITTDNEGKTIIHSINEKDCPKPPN
Chain of human αVβ3 (P06756 31-992 limits assumed): as the sequence (P06756 31-992 limits assumed) above
Chain of human αVβ3 (P05106 27-718 limits assumed): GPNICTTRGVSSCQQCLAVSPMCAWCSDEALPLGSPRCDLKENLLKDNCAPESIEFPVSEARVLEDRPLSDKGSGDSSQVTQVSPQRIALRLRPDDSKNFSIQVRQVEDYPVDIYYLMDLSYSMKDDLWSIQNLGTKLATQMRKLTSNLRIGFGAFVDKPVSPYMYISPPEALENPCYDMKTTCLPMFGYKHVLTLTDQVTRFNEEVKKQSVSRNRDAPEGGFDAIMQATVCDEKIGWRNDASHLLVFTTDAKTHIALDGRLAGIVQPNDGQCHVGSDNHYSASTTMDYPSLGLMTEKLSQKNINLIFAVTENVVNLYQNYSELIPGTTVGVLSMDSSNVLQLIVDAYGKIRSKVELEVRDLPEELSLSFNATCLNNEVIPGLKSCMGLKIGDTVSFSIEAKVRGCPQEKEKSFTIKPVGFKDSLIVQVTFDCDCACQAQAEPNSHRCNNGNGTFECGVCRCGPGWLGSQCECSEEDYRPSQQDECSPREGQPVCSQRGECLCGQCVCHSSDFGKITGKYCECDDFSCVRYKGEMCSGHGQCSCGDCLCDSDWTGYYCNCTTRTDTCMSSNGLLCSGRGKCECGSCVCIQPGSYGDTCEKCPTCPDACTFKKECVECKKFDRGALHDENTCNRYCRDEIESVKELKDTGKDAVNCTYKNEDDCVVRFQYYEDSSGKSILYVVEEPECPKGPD
Chain of human αVβ8 (P06756 31-992 limits assumed): as the sequence (P06756 31-992 limits assumed) above
Chain of human αVβ8 (P26012 43-684 limits assumed): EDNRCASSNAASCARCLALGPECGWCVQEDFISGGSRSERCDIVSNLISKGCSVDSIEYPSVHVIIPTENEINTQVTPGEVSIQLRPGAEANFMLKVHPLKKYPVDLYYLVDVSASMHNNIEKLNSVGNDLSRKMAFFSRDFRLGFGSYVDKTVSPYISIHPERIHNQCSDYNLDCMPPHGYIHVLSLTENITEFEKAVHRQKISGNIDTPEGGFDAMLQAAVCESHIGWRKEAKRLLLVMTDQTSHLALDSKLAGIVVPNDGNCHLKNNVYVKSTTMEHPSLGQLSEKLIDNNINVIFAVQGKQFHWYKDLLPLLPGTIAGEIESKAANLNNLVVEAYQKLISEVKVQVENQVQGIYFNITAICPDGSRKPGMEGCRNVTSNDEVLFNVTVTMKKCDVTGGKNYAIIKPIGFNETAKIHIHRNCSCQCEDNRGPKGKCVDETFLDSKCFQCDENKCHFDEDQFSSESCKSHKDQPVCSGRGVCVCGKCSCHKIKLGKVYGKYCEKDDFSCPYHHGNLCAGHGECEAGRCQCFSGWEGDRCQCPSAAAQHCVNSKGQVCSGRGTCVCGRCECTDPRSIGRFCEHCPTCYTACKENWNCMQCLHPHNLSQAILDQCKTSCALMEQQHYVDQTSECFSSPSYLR

Row | SMILES | IC50 (human αVβ3) [nM] | IC50 (human αVβ8) [nM] | IC50 (human αVβ6) [nM] | IC50 (human αVβ5) [nM]
1 | COc1cncc(C(CC(=O)O)n2ccc(CCCc3ccc4c(n3)NCCC4)n2)c1 (single isomer, unassigned) [Example 64, 3-(5-methoxypyridin-3-yl)-3-(3-(3-(5,6,7,8-tetrahydro-1,8-naphthyridin-2-yl)propyl)-1H-pyrazol-1-yl)propanoic acid] | 3.8 | 110 | 19 | 
2 | COc1ccc(C(CC(=O)O)n2ccc(OCCCc3ccc4c(n3)NCCC4)n2)cn1 (racemic) [Example 48, (±)-3-(6-Methoxypyridin-3-yl)-3-(3-(3-(5,6,7,8-tetrahydro-1,8-naphthyridin-2-yl)propoxy)-1H-pyrazol-1-yl)propanoic acid] | 7.5 |  | 29 | 2.7
3 | COc1ccc(C(CC(=O)O)n2ccc(-c3cccc(-c4ccc5c(n4)NCCC5)c3)n2)cn1 (racemic) [Example 46, (±)-3-(6-Methoxypyridin-3-yl)-3-(3-(3-(5,6,7,8-tetrahydro-1,8-naphthyridin-2-yl)phenyl)-1H-pyrazol-1-yl)propanoic acid] | 14 | 8200 | 28 | 11
4 | COc1cncc(C(CC(=O)O)n2ccc(CCCc3ccc4c(n3)NCCC4)n2)c1 (single isomer, unassigned) [Example 65, 3-(5-methoxypyridin-3-yl)-3-(3-(3-(5,6,7,8-tetrahydro-1,8-naphthyridin-2-yl)propyl)-1H-pyrazol-1-yl)propanoic acid] | 4.3 |  | 410 | 1.1
5 | O=C(O)CC(c1cncc(N2CCOCC2)c1)n1nccc1CCCc1ccc2c(n1)NCCC2 (single isomer, unassigned) [Example 94, 3-(5-morpholinopyridin-3-yl)-3-(5-(3-(5,6,7,8-tetrahydro-1,8-naphthyridin-2-yl)propyl)-1H-pyrazol-1-yl)propanoic acid] |  |  | 19 | 
6 | Cc1ncc(C(CC(=O)O)n2nccc2CCCc2ccc3c(n2)NCCCC3)cn1 (racemic) [Example 99, (±)-3-(2-methylpyrimidin-5-yl)-3-(5-(3-(6,7,8,9-tetrahydro-5/Z-pyrido[2,3-b]azepin-2-yl)propyl)-1H-pyrazol-1-yl)propanoic acid] |  |  | 410 | 
7 | Cc1cc(C)c(S(=O)(=O)NC(Cc2cnn(CCCc3ccc4c(n3)NCCC4)c2)C(=O)O)c(C)c1 (racemic) [Example 25, (±)-3-(1-(3-(5,6,7,8-Tetrahydro-1,8-naphthyridin-2-yl)propyl)-1H-pyrazol-4-yl)-2-((2,4,6-trimethylphenyl)sulfonamido)propanoic acid] |  |  | 395 | 
8 | COc1ccc(C(CC(=O)O)c2nc(CCCc3ccc4c(n3)NCCC4)cs2)cc1F (single isomer, unassigned) [Example 39, 3-(3-Fluoro-4-methoxyphenyl)-3-(4-(3-(5,6,7,8-tetrahydro-1,8-naphthyridin-2-yl)propyl)thiazol-2-yl)propanoic acid] |  |  | 23 | 
9 | COc1ccc(C(CC(=O)O)c2ncc(CCCCc3ccc4c(n3)NCCC4)n2C)cn1 (single isomer, unassigned) [Example 164, 3-(6-methoxypyridin-3-yl)-3-(1-methyl-5-(4-(5,6,7,8-tetrahydro-1,8-naphthyridin-2-yl)butyl)-1H-imidazol-2-yl)propanoic acid] |  |  | 460 | 
10 | O=C(NC(Cc1cnn(CCCc2ccc3c(n2)NCCC3)c1)C(=O)O)OCc1ccccc1 (racemic) [Example 6, (±)-2-(((Benzyloxy)carbonyl)amino)-3-(1-(3-(5,6,7,8-tetrahydro-1,8-naphthyridin-2-yl)propyl)-1N-pyrazol-4-yl)propanoic acid] |  |  | 80 | 
11 | Cc1cncc(C(CC(=O)O)n2ccc(CCCc3ccc4c(n3)NCCC4)n2)c1 (single isomer, unassigned) [Example 70, 3-(5-methylpyridin-3-yl)-3-{3-[3-(5,6,7,8-tetrahydro-1,8-naphthyridin-2-yl)propyl]-1H-pyrazol-1-yl}propanoic acid] |  |  | 4900 | 
12 | COc1ccc(C(CC(=O)O)n2ncc(CCCc3ccc4c(n3)NCCC4)n2)cc1F (single isomer, unassigned) [Example 172, 3-(3-fluoro-4-methoxyphenyl)-3-(4-(3-(5,6,7,8-tetrahydro-1,8-naphthyridin-2-yl)propyl)-2H-1,2,3-triazol-2-yl)propanoic acid] |  |  | 53 | 
13 | O=C(O)CC(c1cncnc1)n1ccc(CCCc2ccc3c(n2)NCCC3)n1 (stereo not drawn) [Example 84, 3-(pyrimidin-5-yl)-3-(3-(3-(5,6,7,8-tetrahydro-1,8-naphthyridin-2-yl)propyl)-1H-pyrazol-1-yl)propanoic acid] |  |  | 110 | 
14 | COc1ncc(C(CC(=O)O)c2nc(CCCc3ccc4c(n3)NCCC4)cs2)cn1 (single isomer, unassigned) [Example 146, 3-(2-methoxypyrimidin-5-yl)-3-(4-(3-(5,6,7,8-tetrahydro-1,8-naphthyridin-2-yl)propyl)thiazol-2-yl)propanoic acid] |  |  | 140 | 
15 | CN(C)c1ccc(C(CC(=O)O)c2nc(CCCc3ccc4c(n3)NCCC4)cs2)cn1 (single isomer, unassigned) [Example 133, 3-(6-(dimethylamino)pyridin-3-yl)-3-(4-(3-(5,6,7,8-tetrahydro-1,8-naphthyridin-2-yl)propyl)thiazol-2-yl)propanoic acid] |  |  | 86 | 
16 | O=C(O)CCCNc1cc(C(CC(=O)O)n2ccc(CCCc3ccc4c(n3)NCCC4)n2)ccn1 (racemic) [Example 76, (±)-4-{[4-(2-carboxy-1-{3-[3-(5,6,7,8-tetrahydro-1,8-naphthyridin-2-yl)propyl]-1H-pyrazol-1-yl}ethyl)pyridin-2-yl]amino}butanoic acid] |  |  | 55 | 

The next molecules have a lower IC50 (human αVβ6) than those just listed; values first:

Row | IC50 (human αVβ3) [nM] | IC50 (human αVβ8) [nM] | IC50 (human αVβ6) [nM] | IC50 (human αVβ5) [nM] | SMILES
17 | 7.3 |  | 18 | 0.99 | Cc1ncc([C@H](CC(=O)O)n2ccc(CCCc3ccc4c(n3)NCCC4)n2)cn1 [Example 54, (S)-3-(2-Methylpyrimidin-5-yl)-3-(3-(3-(5,6,7,8-tetrahydro-1,8-naphthyridin-2-yl)propyl)-1H-pyrazol-1-yl)propanoic acid]
18 | 1120 |  | 11 | 270 | CCOC(=O)C[C@@H](c1ccc(OC)nc1)n1ccc(CCCc2ccc3c(n2)NCCC3)n1 [Example 47, Ethyl (S)-3-(6-methoxypyridin-3-yl)-3-(3-(3-(5,6,7,8-tetrahydro-1,8-naphthyridin-2-yl)propyl)-1H-pyrazol-1-yl)propanoate]
19 | 1.6 | 3020 | 1.6 |  | Cn1cc([C@H](CC(=O)O)n2ccc(CCCc3ccc4c(n3)NCCC4)n2)ccc1=O [Example 45, (S)-3-(1-Methyl-6-oxo-1,6-dihydropyridin-3-yl)-3-(3-(3-(5,6,7,8-tetrahydro-1,8-naphthyridin-2-yl)propyl)-1H-pyrazol-1-yl)propanoic acid ditrifluoroacetic acid salt]
20 |  |  | 17 |  | Cc1ncc(C(CC(=O)O)n2ccc(CCCc3ccc4c(n3)NCCCC4)n2)cn1 (racemic) [Example 96, (±)-3-(2-methylpyrimidin-5-yl)-3-(3-(3-(6,7,8,9-tetrahydro-5H-pyrido[2,3-b]azepin-2-yl)propyl)-1H-pyrazol-1-yl)propanoic acid]
21 |  |  | 4.3 |  | COc1ccc(C(CC(=O)O)n2ccc(CCCc3ccc4c(n3)NCCCC4)n2)cn1 (single isomer, unassigned) [Example 101, 3-(6-methoxypyridin-3-yl)-3-(3-(3-(6,7,8,9-tetrahydro-5H-pyrido[2,3-b]azepin-2-yl)propyl)-1H-pyrazol-1-yl)propanoic acid]
22 |  |  | 8.1 |  | COc1ccc(C(CC(=O)O)c2nc(CCCC3CCc4cccnc4N3)cs2)cn1 (single isomer, unassigned) [Example 155, 3-(6-methoxypyridin-3-yl)-3-(4-(3-(1,2,3,4-tetrahydro-1,8-naphthyridin-2-yl)propyl)thiazol-2-yl)propanoic acid]
23 |  |  | 6.4 |  | O=C(O)CC(c1cnc(N2CCC2)nc1)n1ccc(CCCc2ccc3c(n2)NCCC3)n1 (racemic) [Example 50, (±)-3-(2-(Azetidin-1-yl)pyrimidin-5-yl)-3-(3-(3-(5,6,7,8-tetrahydro-1,8-naphthyridin-2-yl)propyl)-1H-pyrazol-1-yl)propanoic acid]
24 |  |  | 4 |  | CN(C)C(=O)c1ccc(C(CC(=O)O)c2nc(CCCc3ccc4c(n3)NCCC4)cs2)cc1 (single isomer, unassigned) [Example 138, 3-(4-(dimethylcarbamoyl)phenyl)-3-(4-(3-(5,6,7,8-tetrahydro-1,8-naphthyridin-2-yl)propyl)thiazol-2-yl)propanoic acid]
